Key:
[1] = tested on: representative anti-target kinases; assay: Target/anti-target activity matrix from kinase profiling; type: biochemical; conditions: FIG. 3B matrix
Method: (§1) Activity Profiling of Screened Kinase Inhibitors. In vitro profiling of kinase inhibitors against a panel of 190 kinases was performed. Out of bound values were cropped, whereby values below 0% were adjusted to 0%, and values above 100% were adjusted to 100%.
(§2) FIG. 3B illustrates a resultant target-anti-target activity matrix developed by the identification system (e.g., at process 114). The target/anti-target matrix identifies protein target groups separately from protein anti-target groups, where each group type may be ranked according to various factors, such as biologic activity and inhibition bias. Engagement of the protein targets in the matrix promotes a biological activity; and engagement of the protein anti-targets in the matrix impedes the biological activity. In the particular example of FIG. 3B, representative protein kinases for each kinase group and the compounds that inhibit at least one member in the group by ≧10% are shown. […] Compounds are arranged top to bottom in order of decreasing maximum % NTL (right-hand color scale). […] RO0480500-002 accordingly produced % NTL up to 400%, well above the % NTL of any of the other compound. […]

[2] = tested on: representative target kinases; assay: as above; type: biochemical; conditions: FIG. 3B matrix; seven targets
Method: as §1, §2

[3] = tested on: rat embryonic (E18) hippocampal neurons; assay: Neurite outgrowth screening assay with hippocampal neurons; type: cell-based; conditions: neurite total length as percentage of control; for NTL_32 (neurite outgrowth, % NTL): concentration 32 (unit not given); for NTL_160 (neurite outgrowth, % NTL): concentration 160 (unit not given); for NTL_800 (neurite outgrowth, % NTL): concentration 800 (unit not given); for NTL_4000 (neurite outgrowth, % NTL): concentration 4000 (unit not given); for NTL_20000 (neurite outgrowth, % NTL): concentration 20000 (unit not given)
Source text: Neurite Outgrowth Screening Assay with Hippocampal Neurons. Kinase inhibitor libraries were screened in a neurite outgrowth assay. Compounds were screened on rat embryonic (E18) hippocampal neurons cultured for 2 DIV on poly-D-lysine. Plates were fixed, immunostained, and imaged. Screened compounds were classified based on their effects on neurite total length, expressed as percentage of control (% NTL), which served as the biological activity referenced in FIG. 1, for this example. Hits were defined as compounds whose biologic activity (% NTL) reached at least 130% in two independent experiments (hits: % NTL 130; non-hits: % NTL<130). That is, in this example an NTL of 130 was used as the threshold measure (see, e.g., FIGS. 8 and 9). […] A stratification (assurance) step was performed by eliminating from subsequent analysis compounds that had biologic activity within 1 standard deviation of the hit threshold (130±15) (see, e.g., FIG. 6A). Compounds that reduced viable cell count (biologic activity) by more than 40% at concentrations below 800 nM were considered to be toxic and also excluded from subsequent analysis.

SMILES | inhibition of representative anti-target kinases [1] | inhibition of representative target kinases [2] | NTL_32 (neurite outgrowth, % NTL) [3] | NTL_160 (neurite outgrowth, % NTL) [3] | NTL_800 (neurite outgrowth, % NTL) [3] | NTL_4000 (neurite outgrowth, % NTL) [3] | NTL_20000 (neurite outgrowth, % NTL) [3]
COc1cc(N2CCC(N3CCN(C)CC3)CC2)ccc1Nc1ncnc(Nc2ccccc2S(=O)(=O)C(C)C)n1 [ASP3026] | does not inhibit any | inhibits the two target kinases | – | – | – | – | –
c1ccc(-c2cnc(Nc3ccc(OCCN4CCCC4)cc3)s2)cc1 [Flt-3 Inhibitor III] | – | – | 227.0293% | 250.8023% | 291.5283% | 105.129% | 48.44%
NS(=O)(=O)c1cccc(N/C=C2\C(=O)Nc3ccc(S(=O)(=O)Cc4c(Cl)cccc4Cl)cc32)c1 [GSK398099A] | – | – | 100.7527% | 86.99% | 91.2121% | 234.4329% | 357.738%
NC[C@H](CC1CCCCC1)NC(=O)c1ccc(-c2ccnc3[nH]ccc23)s1 [GSK1581428A] | – | – | 229.399% | 335.5001% | 262.488% | 92.84% | 36.79%
N#Cc1ccc(-c2cc(-c3c[nH]nc3-c3ccccn3)ccn2)cc1 [GW693028X] | – | – | 114.3254% | 101.7908% | 99.07% | 110.3241% | 296.1224%
N#CC(=C(N)Sc1ccc(N)cc1)c1ccccc1C(F)(F)F [MEK1/2 Inhibitor] | – | – | 109.3381% | 101.2957% | 104.668% | 120.1756% | 286.068%
Cl.O=S(=O)(c1cccc2c(I)cccc12)N1CCCNCC1 [ML-7, Hydrochloride] | – | – | 193.8632% | 288.4679% | 285.3279% | 269.3169% | 70.23%

From patent US20170147743A1, “RAPID IDENTIFICATION OF PHARMACOLOGICAL TARGETS AND ANTI-TARGETS FOR DRUG DISCOVERY AND REPURPOSING” (UNIVERSITY OF MIAMI, priority 2015, published 2017)
